Test results as given in article PMC6796659, “Topoisomerase IB poisons induce histone H2A phosphorylation as a response to DNA damage in Leishmania infantum” (International Journal for Parasitology: Drugs and Drug …, 2019).
Like-named read-outs stand apart in the source and are kept apart here.

Key:
[1] = system: Leishmania topoisomerase IB (LTopIB); experiment: Relaxation of supercoiled pSK DNA by recombinant LTopIB; type: biochemical
Method: (§1) Expression and purification of LTopIB and hTopIB were carried out according to a previously standardized protocol ([Villa et al., 2003]). The effect of indenoisoquinolines (compounds 1 to 20) on recombinant LTopIB and hTopIB was determined by measuring the relaxation of negatively supercoiled pBluescript-SK DNA plasmid (pSK). Briefly, in a total volume of 20 μL, 100 U of recombinant TopIB were incubated with 0.5 μg of pSK DNA in 10 mM Tris-HCl buffer (pH 7.5), 5 mM MgCl2, 5 mM dithiothreitol (DTT), 0.1 mM EDTA, […] bovine serum albumin, and 150 mM KCl. Different concentrations of indenoisoquinolines were also added. Following a 4-min incubation period at 25 °C, reactions were stopped with 1% (w/v) SDS, and incubated for one extra hour at 37 °C in the presence of 1 mg/mL proteinase K. Subsequently, samples were extracted with 1 vol phenol-chloroform mixture and were loaded on a 1% agarose gel containing 0.1 μg/mL ethidium bromide. The gel was run for 16 h at 4 V/cm, and the images were acquired using a G-Box system (Syngene, United Kingdom).

human Top IB (hTopIB) = biological target: T1, human Top IB (hTopIB) (Homo sapiens, UniProt P11387); experiment: Relaxation of supercoiled pSK DNA by recombinant hTopIB; type: biochemical
T1 construct: made in house
T1 sequence (P11387 1-765): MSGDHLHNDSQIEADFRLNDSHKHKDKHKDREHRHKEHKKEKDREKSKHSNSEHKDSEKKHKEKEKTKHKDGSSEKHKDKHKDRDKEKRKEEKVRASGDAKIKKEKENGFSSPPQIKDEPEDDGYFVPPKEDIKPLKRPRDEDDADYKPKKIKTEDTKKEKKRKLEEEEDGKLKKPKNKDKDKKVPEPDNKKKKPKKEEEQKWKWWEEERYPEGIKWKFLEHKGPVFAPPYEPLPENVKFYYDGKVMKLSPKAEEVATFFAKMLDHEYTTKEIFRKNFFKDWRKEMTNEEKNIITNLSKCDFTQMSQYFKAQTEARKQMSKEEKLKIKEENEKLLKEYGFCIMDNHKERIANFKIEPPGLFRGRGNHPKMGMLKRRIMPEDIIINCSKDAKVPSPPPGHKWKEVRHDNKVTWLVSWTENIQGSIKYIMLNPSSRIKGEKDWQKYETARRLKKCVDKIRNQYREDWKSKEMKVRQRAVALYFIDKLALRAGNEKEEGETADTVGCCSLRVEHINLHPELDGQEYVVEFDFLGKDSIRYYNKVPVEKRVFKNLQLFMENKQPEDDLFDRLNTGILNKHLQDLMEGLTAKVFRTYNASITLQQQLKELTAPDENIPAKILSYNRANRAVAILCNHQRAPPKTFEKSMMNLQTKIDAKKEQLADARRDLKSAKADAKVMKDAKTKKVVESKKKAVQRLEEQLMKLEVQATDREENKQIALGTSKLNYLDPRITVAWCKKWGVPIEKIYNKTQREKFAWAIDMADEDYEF
Method: as §1

[2] = system: L. infantum promastigotes; experiment: Cell cycle analysis by flow cytometry (propidium iodide); type: cell-based, Leishmania infantum; conditions: 1 μM single dose, 0, 8, 24, 48 h
Method: One million promastigotes untreated or treated with 1 μM of different indenoisoquinolines were harvested by centrifugation after 0, 8, 24 and 48 h exposure. Promastigotes were washed twice with PBS and fixed by 1 h incubation with 70% methanol at 4 °C. After incubation, cells were centrifuged, washed again with PBS and resuspended in 0.5 mL of citrate buffer (45 mM MgCl2, 20 mM MOPS, 30 mM sodium citrate, 0.1% Triton X-100, pH = 7). Finally, samples with RNAase (50 μg/mL) and propidium iodide ([…]) were incubated at 37 °C during 30 min and analyzed at 589 nm by flow cytometry (Cyan ADP Dako).

[3] = system: iRFP L. infantum amastigotes infecting mouse splenocytes; experiment: Antileishmanial activity on iRFP L. infantum amastigotes in ex vivo murine splenic explants; type: cell-based, Leishmania infantum; conditions: for SI (Selectivity Index): CC50 (splenocytes)/EC50 (amastigotes); for EC50: Leishmania infantum, Splenocyte, splenic-infecting iRFP L. infantum amastigotes, 72 h, 37 °C, read-out: EC50 (μM) L. infantum amastigotes
Method: Five-week BALB/c female mice infected intraperitoneally with 1.5 × 10^9 metacyclic iRFP L. infantum promastigotes were sacrificed to eviscerate their spleens, which were processed to obtain a suspension of primary splenocytes. Briefly, freshly dissected spleens were washed with cold phosphate-buffered saline (PBS), cut in small pieces and incubated for 20 min with 5 mL of 2 mg/mL collagenase D (Sigma) prepared in buffer (10 mM HEPES, pH 7.4, 150 mM NaCl, 5 mM KCl, 1 mM MgCl2 and 1.8 mM CaCl2). Then, the cell suspension was passed through a 100 μm cell strainer, harvested by centrifugation (500×g for 7 min at 4 °C), washed twice with PBS, and resuspended in RPMI medium (Gibco) supplemented with 10 mM HEPES, 1 mM sodium pyruvate, 1xRPMI 1640 vitamin mix, 10% (v/v) FBS, 50 U/mL penicillin and 50 μg/mL streptomycin. The cell suspension was cultured in 384-well optical bottom black plates (Thermo Scientific) at 37 °C under 5% CO2 atmosphere.
(§2) The antileishmanial activity of the compounds was tested both in promastigotes and in amastigotes infecting mouse splenocytes. For this purpose, 384-well optical bottom black plates (Thermo Scientific) were seeded either with free-living iRFP L. infantum promastigotes or with splenic explants infected with iRFP L. infantum amastigotes, which were incubated at 26 °C or 37 °C, respectively. The viability of both iRFP L. infantum stages was measured by recording the fluorescence emitted by viable cells at 708 nm in an Odyssey (Li-Cor) infrared imaging system after a 72-h period of incubation with different concentrations of the compounds. Dose-response curves were obtained by plotting the infrared fluorescence emission of viable parasites vs. different concentrations of testing compounds and were fitted by nonlinear analysis using the Sigma-Plot 10.0 statistical package. The reduction of infrared emission with respect to the negative control was used to determine the 50% effective concentration to kill the parasites (EC50). Both controls and treated groups were tested with DMSO (drug vehicle) concentrations below 0.1%. All compounds and controls were assayed in triplicate.

[4] = Cytotoxicity on uninfected mouse splenocytes (Alamar Blue); type: cell-based; conditions: BALB/c, freshly isolated uninfected mouse splenocytes, non-infected mouse splenocytes, read-out: CC50 (μM) Murine Splenocytes
Method: Finally, the cytotoxicity of the compounds was assessed on freshly-isolated mouse splenocytes, which were obtained from uninfected BALB/c mice according to the protocol previously described. Viability of uninfected splenocytes was used to determine the cytotoxic concentration 50 (CC50) by means of the Alamar Blue staining method, according to manufacturer's recommendations (Invitrogen). Selectivity index (SI) for each compound was calculated as the ratio between the CC50 value obtained for splenic cells and the EC50 value for amastigotes.

[5] = system: iRFP L. infantum promastigotes; experiment: Antileishmanial activity on free-living iRFP L. infantum promastigotes (infrared fluorescence viability); type: cell-based; conditions: Leishmania infantum, 72 h, 26 °C
Method: Histone phosphorylation assays were performed in promastigotes of L. infantum BCN 150 strain, whereas the antiparasitic activity of the compounds was assessed on the transgenic strain that constitutively expresses the irfp gene encoding the infrared iRFP protein (iRFP L. infantum strain) ([Calvo-Álvarez et al., 2015]), which is derived from L. infantum BCN 150. Both strains were grown at 26 °C in M-199 medium (Gibco) supplemented with 25 mM HEPES pH 7.2, 0.1 mM adenine, 0.0005% (w/v) hemin, 2 μg/mL biopterin, 0.0001% (w/v) biotin, 10% (v/v) heat-inactivated fetal bovine serum (FBS) and an antibiotic cocktail comprising 50 U/mL penicillin and 50 μg/mL streptomycin.
as §2

[6] = system: TopIB-DNA complexes in L. infantum promastigotes; experiment: SDS/K-DNA precipitation (in situ cleavage complex formation); type: cell-based, Leishmania infantum; conditions: 30 min exposure, promastigotes
Method: In order to measure the fragmentation of DNA induced by Top poisons, L. infantum promastigotes, previously labeled with 0.5 mCi/mL [2–^14C] thymidine for 24 h, were exposed to different concentrations of indenoisoquinolines for 30 min, followed by precipitation with SDS/KCl, according to the method described previously ([Balaña-Fouce et al., 2012]). DNA fragmentation was determined as the percentage of total labeled DNA, and was calculated as follows: [(dpm in SDS/KCl drug - dpm in SDS/KCl solvent)/(dpm total incorporation)] x 100. Each experiment was run at least in triplicate.

[7] = system: histone H2A (Thr128) in L. infantum promastigotes; experiment: Histone H2A phosphorylation (γH2A) by Western blot; type: cell-based, Leishmania infantum; conditions: 10 μM, 0, 15, 60, 120 min
Method: To detect H2A phosphorylation by L. infantum promastigotes, parasites in exponential growing phase (5–6 x 10^6 cells/mL) were incubated at 26 °C with CPT derivatives and indenoisoquinolines at a final concentration in the supplemented 199 standard medium of 10 μM. Control cells were treated with the drug vehicle DMSO using concentrations below 0.1%. After 0, 15, 60 and 120-min incubations, promastigotes were harvested by centrifugation, washed twice in PBS and the pellet resuspended in lysis buffer containing 50 mM Tris (pH:7), 50 mM NaCl, 20 mM NaF, 0.1% Tween 20 and 2x protease inhibitors (PIERCE™ protease inhibitor mini tablets). Twenty micrograms of the different extracts were loaded onto 15% SDS-PAGE gels, electrophoresed and transferred to PVDF membranes (Immobilon-FL, Millipore) using a mini trans-blot electrophoretic transfer cell (Bio-Rad). Polyclonal γH2A antisera were used at a 1:2000 dilution and secondary goat anti-rabbit IgG IRDye680 (Li-Cor Biosciences) was used at a 1:15000 dilution. The peptide competition assay was done incubating the polyclonal γH2A antisera with 50 ng/mL of the appropriate peptide (with and without phosphorylation at Thr residue) in blocking buffer for 1 h at room temperature before blotting. Loading control was performed using a monoclonal α tubulin mouse antibody at 2 μg/mL (final concentration) and a goat anti-mouse IgG IRDye 800 (Li-Cor Biosciences) as secondary antibody. Bands were visualized in an Odissey® (Li-Cor Biosciences) infrared detection facility. The quantification of γH2A signal was done with Bio-Rad Quantity One Analysis Software.

[8] = system: iRFP L. infantum amastigotes infecting mouse splenocytes; conditions: ref Prada et al., 2013; cited from earlier work

SMILES	effect on cell cycle of promastigotes [2]	SI (Selectivity Index) [3]	EC50 [3]	CC50 [4]	EC50 [5]	γH2A signal (H2A phosphorylation), Western blot [7]	further results
NCCCn1c2c(c3ccc([N+](=O)[O-])cc3c1=O)C(=O)c1cc(F)ccc1-2 [Compound 7]	arrested the cell cycle of promastigotes in S phase	8.4	0.04 µM	0.3 ± 0.07 µM	1.28 ± 0.08 µM	–	LTopIB inhibition ([1]; Table 1): ++ (inhibition at 10 μM); hTopIB inhibition (human Top IB (hTopIB); Table 1): +++ (inhibition at 1 μM); maximum percentage of SDS/K-DNA precipitable complexes [6]: 33%
COc1ccc2c(c1)C(=O)c1c-2n(CCCN)c(=O)c2cc([N+](=O)[O-])ccc12 [Compound 3]	arrested the cell cycle of promastigotes in S phase	–	> 10 µM	0.41 ± 0.19 µM	0.2 ± 0.01 µM	–	LTopIB inhibition ([1]; Table 1): ++ (inhibition at 10 μM); hTopIB inhibition (human Top IB (hTopIB); Table 1): +++ (inhibition at 1 μM)
COc1cnc2c(c1)C(=O)c1c-2n(CCCN2CCOCC2)c(=O)c2ccc(OC)cc12 [Compound 17]	arrested the cell cycle of promastigotes in S phase	29.0	0.27 ± 0.08 µM	7.84 ± 0.77 µM	2.92 ± 0.44 µM	–	LTopIB inhibition ([1]; Table 3): +++ (inhibition at 1 μM); hTopIB inhibition (human Top IB (hTopIB); Table 3): +++ (inhibition at 1 μM)
CC[C@@]1(O)C(=O)OCc2c1cc1n(c2=O)Cc2cc3c(CN(C)C)c(O)ccc3nc2-1 [TPT, topotecan]	–	–	–	–	–	clear increase in the intensity of the 14-kDa band	–
CC[C@@]1(O)C(=O)OCc2c1cc1n(c2=O)Cc2cc3ccccc3nc2-1 [CPT, camptothecin]	–	–	–	–	–	clear increase in the intensity of the 14-kDa band	EC50 [8]: 30 nM
COc1ccc2c(c1)C(=O)c1c-2n(CCCn2ccnc2)c(=O)c2cc([N+](=O)[O-])ccc12 [Compound 12]	arrested the cell cycle of promastigotes in S phase	33	0.01 µM	0.33 ± 0.05 µM	> 10 µM	–	LTopIB inhibition ([1]; Table 2): ++ (inhibition at 10 μM); hTopIB inhibition (human Top IB (hTopIB); Table 2): +++ (inhibition at 1 μM)
CCc1c2c(nc3ccc(O)cc13)-c1cc3c(c(=O)n1C2)COC(=O)[C@]3(O)CC [SN38]	–	–	–	–	–	clear increase in the intensity of the 14-kDa band	–
COc1cnc2c(c1)C(=O)c1c-2n(CCCN2CCOCC2)c(=O)c2cc(OC)c(OC)cc12 [Compound 18]	arrested the cell cycle of promastigotes in S phase	29.3	0.13 ± 0.01 µM	3.81 ± 0.51 µM	0.53 ± 0.07 µM	–	LTopIB inhibition ([1]; Table 3): ++ (inhibition at 10 μM); hTopIB inhibition (human Top IB (hTopIB); Table 3): ++ (inhibition at 10 μM)
